This is an account of results in US12410211B2, “V1A receptor partial agonist and method of use” (PharmaIN Corporation, priority 2020, dated 2025).

Like-named read-outs stand apart in the source and are kept apart here. Marks after values point to notes of the source that are not given here.

Data set [1] can be described thus: Acute diuretic activity of Terlipressin, Tolvaptan and combinations in Wistar rats (Example 5). The class given is in vivo. On the procedure: The animals were then treated with Terlipressin (Bachem, Torrance CA), Tolvaptan (Fisher Scientific, Waltham, MA) and combination of the two compounds at various concentrations administered subcutaneously (n=4). Test articles were Terlipressin 0.05 mg/Kg and 0.15 mg/Kg, Tolvaptan 0.3 mg/Kg, and 1.0 mg/Kg, Terlipressin 0.05 mg/Kg+Tolvaptan 0.3 mg/Kg, Terlipressin 0.05 mg/Kg+Tolvaptan 1.0 mg/Kg, Terlipressin 0.15 mg/Kg+Tolvaptan 0.3 mg/Kg, and Terlipressin 0.15 mg/Kg+1.0 mg/Kg. Furosemide (Fisher Scientific, Waltham, MA) was used as positive control and dosed at 20 mg/kg via oral gavage. Control dosed vehicle group (9% tween 80; Fisher Scientific, Waltham MA) administered subcutaneously was included and the resulting data was subtracted from individual test article data. After the dose, animals were placed in the metabolic cage (Tecniplast; Province of Varese, Italy) and urine was collected and measured at 2, 4 and 8 hours after the dosing of test articles. Urine volumes were divided by the body weight (pre-dose) times 100 to express in ml/100 g body weight.

For data set [2] the following is noted: cited from earlier work.
The target of the next data set is T1, V1a receptor (Homo sapiens, UniProt P37288).
T1 construct: host or cells: CHO cells
The data set is described as follows: V1a Human Vasopressin GPCR Cell Based Agonist Calcium Flux Assay. The following applies: for Emax: read-out: V1a Highest agonist effect (% of AVP). (Calcium flux is commonly read through the fluorescence of an indicator in the cells.)

The nature of data set [3]: Telemetric evaluation of portal vein pressure in rats with bile duct ligation (Example 9). In kind it is in vivo, Sprague Dawley rats. Conditions: for Percent decrease (%) in Mean Portal Vein Pressure (MPVP) from BDL baseline prior to treatment: BDL rats n = 4, 12 μg/kg subcutaneous. Here is the method: For this study, animals (Sprague Dawley rats (240-300 g at surgery from Charles River Laboratory) were maintained at room temperatures (20 to 22° C.) with 14-hour light, 10-hour dark cycle when not performing study procedures. The mean portal vein pressure (MPVP) reduction efficacy of a peptide of Formula ([…] [SEQ ID NO. 13]; Mpa and C are disulfide bonded; represented as TA-1) was compared to terlipressin in telemetered male with Bile Duct Ligation (BDL) and Sham surgery. On Study Day 1, rats received bile duct ligation surgery and telemetry implantation. The BDL group (n=4) had two stands of silk suture tightened and tied to occlude the bile duct; the sham group (n=3) had sutures loosely tied around the bile duct so that no occlusion occurred. After recovery from surgery, all rats had their portal vein pressure monitored continuously via telemetry until Day 22. […] Terlipressin was administered through intravenous bolus into a lateral tail vein on Day 20 and 21. All animals were dosed under manual restraint. Systolic portal vein pressure and diastolic portal vein pressure were measured to calculate the Mean Portal Vein Pressure ([…] was analyzed by averaging 5 minute intervals for the first 4 hours after dose and thereafter averaging 1 hour intervals after dose until 24 hours. […] Telemetric evaluation of […] [SEQ ID NO. 13] and Terlipressin on portal vein pressure in rats with bile duct ligation. The animal room temperatures were set to maintain 20 to 22° C. A 14-hour light, 10-hour dark cycle was implemented unless interrupted by study procedures. Efficacy was assessed by evaluating mean portal vein pressure (MPVP) at different concentrations of Formula 1 and Terlipressin in telemetered male Sprague Dawley rats (240-300 g at surgery from Charles River Laboratory) with Bile Duct Ligation (BDL) and Sham surgery. On Study Day 1, rats received bile duct ligation surgery and telemetry implantation. The BDL group (n=4) had two stands of silk suture tightened and tied to occlude the bile duct; the sham group (n=3) had sutures loosely tied around the bile duct so that no occlusion occurred. After recovery from surgery, all rats had their portal vein pressure monitored continuously via telemetry until Day 22. […] Formula 1 was administered at different concentrations subcutaneously on Day 15 to 19, and Day 23; Terlipressin was administered through intravenous bolus into a lateral tail vein on Day 20 and 21. All animals were dosed under manual restraint. Systolic portal vein pressure and diastolic portal vein pressure were measured to calculate the Mean Portal Vein Pressure ([…] was analyzed by averaging 5 minute intervals for the first 4 hours after dose and thereafter averaging 1 hour intervals after dose until 24 hours.

Data set [4] is described as follows: Therapeutic index (NOAEL/NOEL): paleness, lethargy, ataxia observation in Sprague-Dawley rats (Example 7). The class given is in vivo. Put shortly: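 Male Sprague-Dawley rats, 8–10 weeks, under isoflurane (n=3 or 6), dosed IV or SC with test articles. Paleness judged by ear colour beside untreated controls; lethargy and ataxia scored by observation. Index expressed as NOAEL/NOEL ratio.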

A short description of data set [5]: Acute diuretic activity of Tolvaptan and peptides of Formula (II) and (IV) in Wistar rats (Example 6). The class given is in vivo. Here is the method: In this study, Male Wistar Rats (˜8 weeks; Envigo; Somerset, NJ) were fasted overnight (18 hours; free access to water) followed by treatment with saline at 20 ml/Kg via oral gavage to have a uniform hydration of all the animals. The animals were then treated with various concentrations of test articles administered subcutaneously (n=4) (Table 5). Control dosed vehicle group (9% tween 80; Fisher Scientific, Waltham MA) administered subcutaneously was included and the resulting data was subtracted from individual test article data. After the dose, animals were placed in the metabolic cage (Tecniplast; Province of Varese, Italy) and urine was collected and measured at 2, 4 and 8 hours after the dosing of test articles. Urine volumes were divided by the body weight (pre-dose) times 100 to express in ml/100 g body weight. […] However, at any ratio, a tolvaptan dose of about 0.3 mg/Kg (i.e., 0.3+0.05 mg/Kg) administered in rats (allometrically equivalent to about 2-7 mg/human depending on persons weight) is an ideal dose that when combined with the composition of the present disclosure provides greater than 50% of the sum of individual diuretic effect administered alone. Low dose of 0.3 mg/Kg of subcutaneous tolvaptan is considered to be 13-fold below the effective safe human dose thus providing additional advantage to patients with liver disease. This can increase mean arterial blood pressure (MAP) which is a V1a effect caused by composition of the present disclosure while maintaining significant (at least 50% of the sum of individual diuretic effect administered alone) of both.

[6] abbreviates: S.C., at the Marked adverse effect dose.
The mark [7] stands for this setting: S.C., at the Mild adverse effect dose.
The mark [8] stands for this setting: peptide alone 0.015 mg/kg subcutaneous.
Where [9] appears, read: peptide alone 0.05 mg/kg subcutaneous.

T1 sequence (P37288 whole entry): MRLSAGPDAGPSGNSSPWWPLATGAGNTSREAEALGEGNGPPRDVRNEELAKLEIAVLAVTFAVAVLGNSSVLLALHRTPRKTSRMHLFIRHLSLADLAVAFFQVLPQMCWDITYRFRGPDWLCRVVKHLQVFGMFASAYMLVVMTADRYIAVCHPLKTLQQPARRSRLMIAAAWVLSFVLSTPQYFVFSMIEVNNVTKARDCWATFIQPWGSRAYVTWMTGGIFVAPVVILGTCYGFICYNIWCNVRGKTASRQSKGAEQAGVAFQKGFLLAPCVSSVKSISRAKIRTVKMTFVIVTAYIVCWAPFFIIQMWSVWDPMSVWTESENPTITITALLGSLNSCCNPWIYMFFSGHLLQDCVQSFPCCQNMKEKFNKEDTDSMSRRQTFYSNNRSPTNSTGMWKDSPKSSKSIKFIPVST

For the compound `NS(=O)(=O)c1cc(C(=O)O)c(NCc2ccco2)cc1Cl` [Furosemide], the “Average mL of Urine per 100 gram body weight 8 hours cumulative (n = 4) minus Vehicle group (Tween 80); (SEM)” value in data set [1] (Furosemide 20 mg/kg oral gavage (positive control)) is 1.73 (0.22) mL per 100 gram body weight.
For `NCCCC[C@H](NC(=O)[C@@H]1CCCN1C(=O)[C@@H]1CSSC[C@H](N)C(=O)N[C@@H](Cc2ccc(O)cc2)C(=O)N[C@@H](Cc2ccccc2)C(=O)N[C@@H](CCC(N)=O)C(=O)N[C@@H](CC(N)=O)C(=O)N1)C(=O)NCC(N)=O` [Lysine vasopressin (LVP), Lysine vasopressin, reference compound], in data set [2] (in vivo), the plasma half-life was 0.833 h. The EC50 (in general, the concentration that produces a half-maximal response) at V1a receptor (Table 3, CHO cells expressing human V1 receptor, read-out: Estimated V1a EC50 (nM), n = 2) was 1.65 nM. For the same compound, the Emax on V1a receptor (Table 3, n = 2) is 92.1%. Moreover, on V1a receptor (Table 4), the “V1a Highest agonist effect (% of AVP); n = 2” value is reported as 92.1 % of AVP.
With `NCC(=O)NCC(=O)NCC(=O)NCC(=O)NCC(=O)NCC(=O)NCCCC[C@H](NC(=O)[C@@H]1CCCN1C(=O)[C@@H]1CSSCCC(=O)N[C@@H](Cc2ccc(O)cc2)C(=O)N[C@@H](Cc2ccccc2)C(=O)N[C@@H](CCCC(N)=O)C(=O)N[C@@H](CC(N)=O)C(=O)N1)C(=O)NCC(N)=O` [SEQ ID NO. 13, Mpa-Tyr-Phe-Hgn-Asn-Cys-Pro-Lys(X)a-Gly-NH2; (X)a = (Gly)6], the “drop in portal pressure compared to Terlipressin (41 ug/kg)” value in data set [3] (12 ug/kg dose, BDL rats) is on record as “more effective in providing a sustain drop in portal pressure”. Moreover, the “Percent decrease (%) in Mean Portal Vein Pressure (MPVP) from BDL baseline prior to treatment” value in data set [3] (Time 1 hr) is given as 5%; in data set [3] (Time 4 hr) it was −30.5%; in data set [3] (Time 7 hr), −10.5%; in data set [3] (Time 20 hr) it was −29.75%. In addition, the Emax at V1a receptor (n = 2) stood at 28.2%. The “Paleness (Duration, hrs; SD)” value in data set [4] (setting [6]) was “(>5.6)* hrs”; in data set [4] (setting [7]) it was “(6.23 ± 0.06) hrs”; in data set [4] (S.C., at the NOAEL dose), “(6.07 ± 0.08) hrs”; in data set [4] (S.C., at the NOEL dose), “None observed”. Moreover, the “Highest dose with no-observed effect level or paleness (NOEL)” value in data set [4] (S.C., rat) worked out at 0.003 mg/kg. Moreover, in data set [4] (male, Sprague-Dawley, in vivo, sc, S.C., rat, read-out: Highest dose with no-observed adverse effect level without lethargy (NOAEL)), the NOAEL (in general, the highest dose or exposure tested at which no adverse effect was seen) at 24 h was 0.3 mg/kg. The “Marked adverse effect (Lowest dose first showed Ataxia)” value in data set [4] (rat, in vivo, sc) came out at 5.0 mg/kg. Moreover, the “Mild adverse effect (Lowest dose first showed Lethargy)” value in data set [4] (rat, in vivo, sc) was 0.5 mg/kg.
Turning to `NCCCC[C@H](NC(=O)[C@@H]1CCCN1C(=O)[C@@H]1CSSCCC(=O)N[C@@H](Cc2ccc(O)cc2)C(=O)N[C@@H](Cc2ccccc2)C(=O)N[C@@H](CCC(N)=O)C(=O)N[C@@H](CC(N)=O)C(=O)N1)C(=O)NCC(N)=O` [SEQ ID NO. 32], the “Average 8 hours cumulative Urine Volume: mL per 100 gram body weight (SEM; n = 4) minus Tween 80 vehicle group” value in data set [5] (peptide alone 0.005 mg/kg subcutaneous) was 0.80 (0.50) mL per 100 gram body weight; in data set [5] (setting [8]), 0.86 (0.28) mL per 100 gram body weight; in data set [5] (setting [9]), 0.74 (0.55) mL per 100 gram body weight. Moreover, the “Paleness (Duration, hrs; SD)” value in data set [4] (setting [6]) is “(4.79 ± 0.08) hrs”; in data set [4] (setting [7]), “(4.45 ± 0.26) hrs”; in data set [4] (S.C., at the NOAEL dose) it was “(3.54 ± 0.11) hrs”; in data set [4] (S.C., at the NOEL dose), “None observed”. Moreover, in data set [4] (S.C., rat), the “Highest dose with no-observed effect level or paleness (NOEL)” value came to 0.0005 mg/kg. In addition, the “NOAEL/NOEL (therapeutic index)” value in data set [4] (S.C., rat) is given as 20. The NOAEL in data set [4] (in vivo, sc, S.C., rat, read-out: Highest dose with no-observed adverse effect level without lethargy (NOAEL)) worked out at 0.01 mg/kg. For the same compound, the “Marked adverse effect (Lowest dose first showed Ataxia)” value in data set [4] (rat, in vivo, sc) is 0.1 mg/kg. In addition, in data set [4] (rat, in vivo, sc), the “Mild adverse effect (Lowest dose first showed Lethargy)” value came out at 0.03 mg/kg.
`Cc1ccccc1C(=O)Nc1ccc(C(=O)N2CCCC(O)c3cc(Cl)ccc32)c(C)c1` (stereo not drawn) [Tolvaptan]: the “Average mL of Urine per 100 gram body weight 8 hours cumulative (n = 4) minus Vehicle group (Tween 80); (SEM)” value in data set [1] (Tolvaptan 0.3 mg/Kg subcutaneous) is recorded as 0.65 (0.16) mL per 100 gram body weight; in data set [1] (Tolvaptan 1.0 mg/Kg subcutaneous), 7.29 (0.46) mL per 100 gram body weight. Further, the “Average 8 hours cumulative Urine Volume: mL per 100 gram body weight (SEM; n = 4) minus Tween 80 vehicle group” value in data set [5] (Tolvaptan 0.3 mg/kg subcutaneous) is listed as 0.65 (0.16) mL per 100 gram body weight.
Regarding `NC(=O)CC[C@@H]1NC(=O)[C@H](Cc2ccccc2)NC(=O)[C@H](Cc2ccc(O)cc2)NC(=O)[C@@H](N)CSSC[C@@H](C(=O)N2CCC[C@H]2C(=O)N[C@@H](CCCN=C(N)N)C(=O)NCC(N)=O)NC(=O)[C@H](CC(N)=O)NC1=O` [Vasopressin], in data set [2] (in vivo), the “excreted through the kidney” value is recorded as 65%; the “metabolized by liver and kidney vasopressinases” value is given as 35%; the protein binding result was “not protein-bound”. Also, the volume of distribution in data set [2] (plasma) is 0.14 L/kg.
Take `NC(=O)CC[C@@H]1NC(=O)[C@H](Cc2ccccc2)NC(=O)[C@H](Cc2ccc(O)cc2)NC(=O)CCSSC[C@@H](C(=O)N2CCC[C@H]2C(=O)N[C@H](CCCN=C(N)N)C(=O)NCC(N)=O)NC(=O)[C@H](CC(N)=O)NC1=O` [desmopressin]: the half-life (usually the time in which the quantity being followed falls by half) in data set [2] (in vivo) was 2 h.
Take “Mpa-Tyr-Phe-Gln-Asn-Cys-Pro-Lys(X)a-Gly-NH2; (X)a = (Gly)5 [SEQ ID NO. 33]”: the “Average 8 hours cumulative Urine Volume: mL per 100 gram body weight (SEM; n = 4) minus Tween 80 vehicle group” value is 1.11 (0.11) mL per 100 gram body weight in data set [5] (setting [8]), 1.32 (0.09) mL per 100 gram body weight in data set [5] (setting [9]) and 1.85 (0.20) mL per 100 gram body weight in data set [5] (peptide alone 0.15 mg/kg subcutaneous).
